pIC50, pKi: −log10 of the molar value. Numbered stars: 1 amine (or outer) side, 2 acyl side, 3 side chain; on linkers, the order of the positions; unused ones are H or OH. Bridge positions count the residues as written; N and C are the ends. Square brackets hold non-standard residues; d marks the D form. Peptide text beside a SMILES is read from it. Phe(4-guanidino) = N=C(N)Nc1ccc(C[C@H](N)C(=O)O)cc1; TBMB = c1c(C[*:1])cc(C[*:3])cc1C[*:2]; NMeR = CN[C@@H](CCCNC(=N)N)C(=O)O; hArg = N=C(N)NCCCC[C@H](N)C(=O)O
Columns and labels:
[1] = target: T1, rat plasma Kallikrein (Rattus norvegicus, UniProt P14272); assay: Functional enzyme inhibition assay, fluorogenic substrate Z-PheArg-AMC; assay type: biochemical
T1 construct: polyhistidine tag with proTEV cleavage site (pro-peptide) (N, cleaved yes); made in house; host or cells: HEK-293 (suspension-adapted)
T1 sequence (P14272 391-638 limits assumed): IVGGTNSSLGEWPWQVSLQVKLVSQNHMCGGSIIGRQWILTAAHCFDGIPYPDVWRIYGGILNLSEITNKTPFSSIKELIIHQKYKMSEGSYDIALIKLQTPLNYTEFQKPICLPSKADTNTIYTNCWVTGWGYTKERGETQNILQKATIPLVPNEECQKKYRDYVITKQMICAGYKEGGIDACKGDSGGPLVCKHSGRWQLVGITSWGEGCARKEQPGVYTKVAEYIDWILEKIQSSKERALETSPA

[2] = Plasma stability method 3 (95% plasma, quantitative LC/MS, Biofocus); assay type: in vitro ADME, rat
Description: To obtain plasma stability quantitatively, peptide stock solutions (1 mM in DMSO) were shipped to Biofocus, UK, who performed the analysis. Peptides were diluted to 100 uM with water, and diluted 1:20 in plasma (5 uM final concentration, with the plasma at 95%), sampled as appropriate, precipitated as above, and quantified using a Waters Xevo TQ-MS.

[3] = Plasma stability profiling method 1 (35% plasma, MALDI-TOF, qualitative); assay type: in vitro ADME, rat; details: 35% rat plasma, 37 deg C, method 1, comparative estimate
Outline: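 Peptide at 200 uM incubated at 37 deg C in 35% rat or human citrated plasma with 1×PBS, sampled at 0, 3, 24 h then daily up to 10 days. Parent mass tracked by MALDI-TOF at similar laser intensity; value is time until parent no longer detectable, qualitative only.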

[4] = target: T2, human plasma Kallikrein (Homo sapiens, UniProt P03952); assay: Functional enzyme inhibition assay, fluorogenic substrate Z-PheArg-AMC; assay type: biochemical; details: for Ki: Ki (nM) (human kallikrein), Ac-06-34-18(TMB)-NH2 series
T2 construct: purchased Stratech, UK
T2 sequence (P03952 20-638): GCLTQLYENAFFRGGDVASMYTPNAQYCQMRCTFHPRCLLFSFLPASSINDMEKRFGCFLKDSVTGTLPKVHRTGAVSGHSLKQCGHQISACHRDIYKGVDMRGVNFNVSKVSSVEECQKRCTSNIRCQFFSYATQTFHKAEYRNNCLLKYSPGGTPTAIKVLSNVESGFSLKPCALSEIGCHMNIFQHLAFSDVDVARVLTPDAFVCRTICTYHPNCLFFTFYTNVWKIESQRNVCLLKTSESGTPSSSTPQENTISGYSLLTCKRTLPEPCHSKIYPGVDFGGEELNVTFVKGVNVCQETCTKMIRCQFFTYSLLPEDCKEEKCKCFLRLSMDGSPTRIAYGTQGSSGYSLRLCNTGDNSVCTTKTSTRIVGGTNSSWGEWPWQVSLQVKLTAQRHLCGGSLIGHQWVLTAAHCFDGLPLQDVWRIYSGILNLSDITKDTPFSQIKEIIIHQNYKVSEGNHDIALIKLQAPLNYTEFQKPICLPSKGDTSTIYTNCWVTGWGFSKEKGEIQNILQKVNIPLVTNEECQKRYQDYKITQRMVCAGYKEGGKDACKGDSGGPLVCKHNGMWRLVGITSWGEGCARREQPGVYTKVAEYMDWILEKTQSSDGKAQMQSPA
Description: Peptides were dissolved as the TFA-salts in their powder form, and stock solutions were usually prepared in water. All solutions were centrifuged and filtered ([…] syringe filters) prior absorption measurement at 280 nm. […] For peptides containing non-natural amino acids with suspected chromophoric properties (i.e. NorHar, 4PhenylPro, 3PaI, 4PaI, Tic, 4GuanPhe, 4,4-BPAI, 3,3-DPA, 1NAI, 2NAI, 4BenzylPro, Ind) concentrations were determined by weighing the powder and dissolving the peptide in a defined quantity of water.

[5] = target: Monkey plasma Kallikrein (mPK) (Macaca mulatta, UniProt A0A1D5Q7U7); assay: Target specificity, Ki for orthologous protease; assay type: biochemical
Chain of Monkey plasma Kallikrein (mPK) (A0A1D5Q7U7 391-638): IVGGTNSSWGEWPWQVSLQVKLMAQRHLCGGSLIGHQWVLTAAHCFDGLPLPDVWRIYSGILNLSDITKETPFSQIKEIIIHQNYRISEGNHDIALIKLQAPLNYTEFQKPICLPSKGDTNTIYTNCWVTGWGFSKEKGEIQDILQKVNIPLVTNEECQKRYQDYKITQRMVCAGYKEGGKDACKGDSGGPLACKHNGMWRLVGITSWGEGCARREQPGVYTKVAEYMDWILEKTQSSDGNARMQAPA

[6] = target: Human factor XIa (hfXIa) (Homo sapiens, UniProt P03951); details: highest concentration tested (10 μM); Heinis et al. 2009; cited from earlier work
Chain of Human factor XIa (hfXIa) (P03951 388-625 limits assumed): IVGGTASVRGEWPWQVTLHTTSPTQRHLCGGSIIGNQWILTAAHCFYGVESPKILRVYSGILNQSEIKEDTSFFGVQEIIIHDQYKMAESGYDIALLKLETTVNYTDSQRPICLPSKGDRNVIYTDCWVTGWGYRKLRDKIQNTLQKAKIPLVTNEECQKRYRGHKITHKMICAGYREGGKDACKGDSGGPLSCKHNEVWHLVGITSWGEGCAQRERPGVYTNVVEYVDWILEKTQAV
Chain of Human factor XIa (hfXIa) (P03951 19-387 partner limits assumed): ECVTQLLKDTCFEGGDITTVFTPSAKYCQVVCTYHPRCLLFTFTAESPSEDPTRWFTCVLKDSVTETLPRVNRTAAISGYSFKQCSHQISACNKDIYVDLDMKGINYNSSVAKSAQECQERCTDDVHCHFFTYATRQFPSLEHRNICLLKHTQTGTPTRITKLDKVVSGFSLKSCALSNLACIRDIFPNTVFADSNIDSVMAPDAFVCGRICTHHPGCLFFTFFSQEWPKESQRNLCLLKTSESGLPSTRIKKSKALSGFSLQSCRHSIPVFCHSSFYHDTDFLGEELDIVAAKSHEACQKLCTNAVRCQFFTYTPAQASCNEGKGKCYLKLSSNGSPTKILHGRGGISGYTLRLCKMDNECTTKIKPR

[7] = target: Human thrombin (Homo sapiens, UniProt P00734); details: highest concentration tested (10 μM); Heinis et al. 2009; cited from earlier work
[8] = target: T1, rat plasma Kallikrein; details: highest concentration tested (10 μM); Heinis et al. 2009; cited from earlier work

For `CSCC[C@@H]1NC(=O)[C@@H]2CSCc3cc(cc(c3)CSC[C@@H](C(=O)N[C@@H](C)C(N)=O)NC(=O)[C@H](CC(C)C)NC(=O)[C@H](CC(=O)O)NC(=O)[C@H](CCC(N)=O)NC(=O)[C@H](Cc3c[nH]cn3)NC1=O)CSC[C@H](NC(=O)[C@H](C)N)C(=O)N[C@@H](CCCNC(=N)N)C(=O)N[C@@H](Cc1c[nH]c3ccccc13)C(=O)N1CCC[C@H]1C(=O)N[C@@H](C)C(=O)N[C@@H](CCCNC(=N)N)C(=O)N2` [Peptide 06-34-04] (H-ACRWPARCMHQDLCA-NH2; linker 2-8-14 via TBMB; N-terminus and C-terminus assumed), the pIC50 [1] was 9.25.
With `CC(=O)N[C@H]1CSCc2cc3cc(c2)CSC[C@H](NC(=O)[C@H](CCCCNC(=N)N)NC(=O)[C@H](Cc2ccc(O)cc2)NC(=O)[C@@H]2CCCN2C(=O)[C@H](Cc2ccccc2)NC(=O)[C@H](CO)NC1=O)C(=O)N[C@@H](CC(C)C)C(=O)N[C@@H](Cc1c[nH]cn1)C(=O)N[C@@H](CCC(N)=O)C(=O)N[C@@H](CC(=O)O)C(=O)N[C@@H](CC(C)C)C(=O)N[C@H](C(N)=O)CSC3` [Ac-(06-34-18) Phe2 Tyr4 HomoArg5] (Ac-CSFPY[hArg]CLHQDLC-NH2; linker 1-7-13 via TBMB) the “t1/2 (hrs) in rat plasma” value ([2]; rat, plasma, 5 uM) was 12.2 h, the “rat plasma stability enhanced by a factor” value ([2]; vs parent Phe2Tyr4 peptide) was 13 and the “Observable in rat plasma, for days” value [3] was over 10 days.
For `CC(=O)N[C@H]1CSCc2cc3cc(c2)CSC[C@H](NC(=O)[C@H](CCCNC(=N)N)NC(=O)[C@H](C)NC(=O)[C@@H]2CCCN2C(=O)[C@H](Cc2c[nH]c4ccccc24)NC(=O)[C@H](CO)NC1=O)C(=O)N[C@@H](CC(C)C)C(=O)N[C@@H](Cc1c[nH]cn1)C(=O)N[C@@H](CCC(N)=O)C(=O)N[C@@H](CC(=O)O)C(=O)N[C@@H](CC(C)C)C(=O)N[C@H](C(N)=O)CSC3` [Ac-(06-34-18) wildtype], the “t1/2 (hrs) in rat plasma” value ([2]; method 3, quantitative, listed as Ac-06-34-18(TMB)-NH2) was “about 2 hrs” and the “Observable in rat plasma, for days” value ([3]; listed as Ac-06-34-18(TMB)-NH2) was “about 2 days”.
In the case of `CC(=O)N[C@H]1CSCc2cc3cc(c2)CSC[C@H](NC(=O)[C@H](CCCNC(=N)N)NC(=O)[C@H](Cc2ccc(O)cc2)NC(=O)[C@@H]2CCCN2C(=O)[C@H](Cc2ccccc2)NC(=O)[C@H](CO)NC1=O)C(=O)N[C@@H](CC(C)C)C(=O)N[C@@H](Cc1c[nH]cn1)C(=O)N[C@@H](CCC(N)=O)C(=O)N[C@@H](CC(=O)O)C(=O)N[C@@H](CC(C)C)C(=O)N[C@H](C(N)=O)CSC3` [Ac-(06-34-18) FPYR] (Ac-CSFPYRCLHQDLC-NH2; linker 1-7-13 via TBMB), the Ki [4] was 0.46 nM, the “t1/2 (hrs) in rat plasma” value ([2]; rat, plasma, 5 uM) was 0.9 h and the “Observable in rat plasma, for days” value [3] was 2 days.
For `CC(=O)N[C@H]1CSCc2cc3cc(c2)CSC[C@H](NC(=O)[C@H](Cc2ccc(NC(=N)N)cc2)NC(=O)[C@H](Cc2ccc(O)cc2)NC(=O)[C@@H]2CCCN2C(=O)[C@H](Cc2ccccc2)NC(=O)[C@H](CO)NC1=O)C(=O)N[C@@H](CC(C)C)C(=O)N[C@@H](Cc1c[nH]cn1)C(=O)N[C@@H](CCC(N)=O)C(=O)N[C@@H](CC(=O)O)C(=O)N[C@@H](CC(C)C)C(=O)N[C@H](C(N)=O)CSC3` [Ac-(06-34-18) Phe2 Tyr4 4GuanPhe5] (Ac-CSFPY[Phe(4-guanidino)]CLHQDLC-NH2; linker 1-7-13 via TBMB), the Ki [4] was 0.4 nM, the “t1/2 (hrs) in rat plasma” value ([2]; rat, plasma, 5 uM) was 5.0 h and the “Observable in rat plasma, for days” value [3] was over 10 days.
For `CC(C)C[C@@H]1NC(=O)[C@H](C)NC(=O)[C@H](CCC(=O)O)NC(=O)[C@H](CC(=O)O)NC(=O)[C@H](C)NC(=O)[C@@H]2CCCN2C(=O)[C@@H]2CSCc3cc(cc(c3)CSC[C@@H](C(=O)NCC(N)=O)NC1=O)CSC[C@H](NC(=O)[C@H](C)N)C(=O)N[C@@H](CO)C(=O)N[C@@H](CC(=O)O)C(=O)N[C@@H](CCCNC(=N)N)C(=O)N[C@@H](Cc1ccccc1)C(=O)N[C@@H](CCCNC(=N)N)C(=O)N[C@@H](CC(N)=O)C(=O)N2` [PK15] (H-ACSDRFRNCPADEALCG-NH2; linker 2-9-16 via TBMB), the pKi [5] is listed as 8.40, the pKi ([4]; Ki Human plasma kalikrein (hPK), Table 1, means of at least two measurements) is listed as 8.52 and the “inhibition of human factor XIa (hfXIa)” value [6] is listed as “did not inhibit”. The inhibition of thrombin [7] was “did not inhibit” and the “inhibition of rat PK” value [8] was “did not inhibit”.
Work on `CC(C)C[C@@H]1NC(=O)[C@H](CC(=O)O)NC(=O)[C@H](CCC(N)=O)NC(=O)[C@H](Cc2c[nH]cn2)NC(=O)[C@H](CC(C)C)NC(=O)[C@@H]2CSCc3cc(cc(c3)CSC[C@@H](C(=O)N[C@@H](C)C(N)=O)NC1=O)CSC[C@H](NC(=O)[C@H](C)N)C(=O)N[C@@H](CO)C(=O)N[C@@H](Cc1c[nH]c3ccccc13)C(=O)N1CCC[C@H]1C(=O)N[C@@H](C)C(=O)N[C@@H](CCCNC(=N)N)C(=O)N2` [Peptide 06-34-18] (H-ACSWPARCLHQDLCA-NH2; linker 2-8-14 via TBMB) yielded a pIC50 [4] of 10.15 and a pIC50 [1] of 9.25.
For `CC(C)[C@@H]1NC(=O)[C@H](CCCNC(=N)N)NC(=O)[C@@H]2CSCc3cc(cc(c3)CSC[C@@H](C(=O)N[C@@H](C)C(N)=O)NC(=O)[C@H](CC(N)=O)NC1=O)CSC[C@H](NC(=O)[C@H](C)N)C(=O)N[C@@H](Cc1ccccc1)C(=O)N[C@@H](CCCCN)C(=O)N[C@@H](C)C(=O)N2` [Peptide 3B3], the pKi [5] was 7.96.
For `CC(=O)N[C@H]1CSCc2cc3cc(c2)CSC[C@H](NC(=O)[C@H](CCCNC(=N)N)N(C)C(=O)[C@H](Cc2ccc(O)cc2)NC(=O)[C@@H]2CCCN2C(=O)[C@H](Cc2ccccc2)NC(=O)[C@H](CO)NC1=O)C(=O)N[C@@H](CC(C)C)C(=O)N[C@@H](Cc1c[nH]cn1)C(=O)N[C@@H](CCC(N)=O)C(=O)N[C@@H](CC(=O)O)C(=O)N[C@@H](CC(C)C)C(=O)N[C@H](C(N)=O)CSC3` [Ac-(06-34-18) Phe2 Tyr4 NMeArg5] (Ac-CSFPY[NMeR]CLHQDLC-NH2; linker 1-7-13 via TBMB), the Ki [4] was 3.56 nM, the “t1/2 (hrs) in rat plasma” value ([2]; rat, plasma, 5 uM) was over 20 h and the “Observable in rat plasma, for days” value [3] was over 10 days.
Compound `C[C@H](N)C(=O)N[C@H]1CSCc2cc3cc(c2)CSC[C@H](NC(=O)[C@H](CCCNC(=N)N)NC(=O)[C@H](C)NC(=O)[C@@H]2CCCN2C(=O)[C@H](Cc2c[nH]c4ccccc24)NC(=O)[C@H](CCCNC(=N)N)NC1=O)C(=O)N[C@@H]([C@@H](C)O)C(=O)N[C@@H](Cc1c[nH]cn1)C(=O)N[C@@H](CCC(N)=O)C(=O)N[C@@H](CC(N)=O)C(=O)N[C@@H](Cc1ccc(O)cc1)C(=O)N[C@H](C(=O)N[C@@H](C)C(N)=O)CSC3` [Peptide 06-54] (H-ACRWPARCTHQNYCA-NH2; linker 2-8-14 via TBMB; N-terminus and C-terminus assumed) has a pKi [5] of 8.22.

Source: patent publication US11912794B2, “Modulation of structured polypeptide specificity” (BicycleRD Limited, priority 2011, dated 2024)
